Data as given in ChEMBL document CHEMBL3044649, “Zn(OTf)2-catalyzed three component, one-pot cyclocondensation reaction of some new octahydroquinazolinone derivatives and access their bio-potential” (2012).
Converted amounts (≈) assume the structure as drawn.

Assays:
Format in all cases: functional
Aspergillus fumigatus = test: Antimicrobial activity against Aspergillus fumigatus MTCC 3008 after 24 to 48 hr by broth microdilution method
Candida albicans = test: Antimicrobial activity against Candida albicans MTCC 227 after 24 to 48 hr by broth microdilution method
Clostridium tetani = test: Antimicrobial activity against Clostridium tetani MTCC 449 after 24 to 48 hr by broth microdilution method
Bacillus subtilis = test: Antimicrobial activity against Bacillus subtilis MTCC 441 after 24 to 48 hr by broth microdilution method
Streptococcus pneumoniae = test: Antimicrobial activity against Streptococcus pneumoniae MTCC 1936 after 24 to 48 hr by broth microdilution method
Vibrio cholerae = test: Antimicrobial activity against Vibrio cholerae MTCC 3906 after 24 to 48 hr by broth microdilution method
Salmonella typhi = test: Antimicrobial activity against Salmonella enterica subsp. enterica serovar Typhi MTCC 98 after 24 to 48 hr by broth microdilution method
Escherichia coli = test: Antimicrobial activity against Escherichia coli MTCC 443 after 24 to 48 hr by broth microdilution method

| Molecule | MIC (Aspergillus fumigatus) | MIC (Candida albicans) | MIC (Clostridium tetani) | MIC (Bacillus subtilis) | MIC (Streptococcus pneumoniae) | MIC (Vibrio cholerae) | MIC (Salmonella typhi) | MIC (Escherichia coli) |
| --- | --- | --- | --- | --- | --- | --- | --- | --- |
| Cc1ccc2[nH]c(=O)c(C3NC(=S)NC4=C3C(=O)CC(C)(C)C4)cc2c1 (stereo not given) | > 1000 µg/mL | > 1000 µg/mL | 100 µg/mL (≈ 272 µM) | 100 µg/mL (≈ 272 µM) | 100 µg/mL (≈ 272 µM) | 100 µg/mL (≈ 272 µM) | 150 µg/mL (≈ 408 µM) | 250 µg/mL (≈ 680 µM) |
| O=C1CCCC2=C1C(c1cc3ccccc3[nH]c1=O)NC(=S)N2 (stereo not given) | 200 µg/mL (≈ 615 µM) | 100 µg/mL (≈ 307 µM) | 200 µg/mL (≈ 615 µM) | 200 µg/mL (≈ 615 µM) | 200 µg/mL (≈ 615 µM) | 500 µg/mL (≈ 1540 µM) | 500 µg/mL (≈ 1540 µM) | 100 µg/mL (≈ 307 µM) |
| NYSTATIN | 100 µg/mL | 100 µg/mL | – | – | – | – | – | – |
| Cc1ccc2[nH]c(=O)c(C3NC(=O)NC4=C3C(=O)CC(C)(C)C4)cc2c1 (stereo not given) | 1000 µg/mL (≈ 2850 µM) | 500 µg/mL (≈ 1420 µM) | 100 µg/mL (≈ 285 µM) | 100 µg/mL (≈ 285 µM) | 100 µg/mL (≈ 285 µM) | 1000 µg/mL (≈ 2850 µM) | 250 µg/mL (≈ 711 µM) | 100 µg/mL (≈ 285 µM) |
| Cc1ccc2[nH]c(=O)c(C3NC(=S)NC4=C3C(=O)CCC4)cc2c1 (stereo not given) | 500 µg/mL (≈ 1470 µM) | 200 µg/mL (≈ 589 µM) | 500 µg/mL (≈ 1470 µM) | 500 µg/mL (≈ 1470 µM) | 500 µg/mL (≈ 1470 µM) | 500 µg/mL (≈ 1470 µM) | 500 µg/mL (≈ 1470 µM) | 500 µg/mL (≈ 1470 µM) |
| O=C(O)c1cn(C2CC2)c2cc(N3CCNCC3)c(F)cc2c1=O [CIPROFLOXACIN] | – | – | – | – | 50 µg/mL (≈ 151 µM) | 25 µg/mL (≈ 75.4 µM) | 25 µg/mL (≈ 75.4 µM) | 25 µg/mL (≈ 75.4 µM) |
| O=C1CCCC2=C1C(c1cc3cc(Cl)ccc3[nH]c1=O)NC(=S)N2 (stereo not given) | 1000 µg/mL (≈ 2780 µM) | 500 µg/mL (≈ 1390 µM) | 250 µg/mL (≈ 695 µM) | 250 µg/mL (≈ 695 µM) | 250 µg/mL (≈ 695 µM) | 250 µg/mL (≈ 695 µM) | 200 µg/mL (≈ 556 µM) | 100 µg/mL (≈ 278 µM) |
| CC1(C)CC(=O)C2=C(C1)NC(=S)NC2c1cc2ccccc2[nH]c1=S (stereo not given) | 500 µg/mL (≈ 1350 µM) | 250 µg/mL (≈ 677 µM) | 200 µg/mL (≈ 541 µM) | 250 µg/mL (≈ 677 µM) | 500 µg/mL (≈ 1350 µM) | 250 µg/mL (≈ 677 µM) | 100 µg/mL (≈ 271 µM) | 100 µg/mL (≈ 271 µM) |
| CC1(C)CC(=O)C2=C(C1)NC(=O)NC2c1cc2cc(Cl)ccc2[nH]c1=O (stereo not given) | > 1000 µg/mL | 500 µg/mL (≈ 1340 µM) | 100 µg/mL (≈ 269 µM) | 200 µg/mL (≈ 538 µM) | 500 µg/mL (≈ 1340 µM) | 500 µg/mL (≈ 1340 µM) | 200 µg/mL (≈ 538 µM) | 100 µg/mL (≈ 269 µM) |
| CC1(C)CC(=O)C2=C(C1)N(c1ccccc1)C(=S)NC2c1cc2ccccc2[nH]c1=O (stereo not given) | 1000 µg/mL (≈ 2330 µM) | 250 µg/mL (≈ 582 µM) | 250 µg/mL (≈ 582 µM) | 500 µg/mL (≈ 1160 µM) | 500 µg/mL (≈ 1160 µM) | 500 µg/mL (≈ 1160 µM) | 200 µg/mL (≈ 466 µM) | 250 µg/mL (≈ 582 µM) |
| Cc1ccc2[nH]c(=O)c(C3NC(=O)NC4=C3C(=O)CCC4)cc2c1 (stereo not given) | 1000 µg/mL (≈ 3090 µM) | 1000 µg/mL (≈ 3090 µM) | 200 µg/mL (≈ 619 µM) | 500 µg/mL (≈ 1550 µM) | 100 µg/mL (≈ 309 µM) | 200 µg/mL (≈ 619 µM) | 500 µg/mL (≈ 1550 µM) | 500 µg/mL (≈ 1550 µM) |
| O=C1CCCC2=C1C(c1cc3ccccc3[nH]c1=S)NC(=S)N2 (stereo not given) | > 1000 µg/mL | 250 µg/mL (≈ 732 µM) | 250 µg/mL (≈ 732 µM) | 250 µg/mL (≈ 732 µM) | 500 µg/mL (≈ 1460 µM) | 250 µg/mL (≈ 732 µM) | 200 µg/mL (≈ 586 µM) | 250 µg/mL (≈ 732 µM) |
| CCn1cc(C(=O)O)c(=O)c2cc(F)c(N3CCNCC3)cc21 [NORFLOXACIN] | – | – | 50 µg/mL (≈ 157 µM) | 100 µg/mL (≈ 313 µM) | 10 µg/mL (≈ 31.3 µM) | 10 µg/mL (≈ 31.3 µM) | 10 µg/mL (≈ 31.3 µM) | 10 µg/mL (≈ 31.3 µM) |
| CC1(C)CC(=O)C2=C(C1)NC(=S)NC2c1cc2ccccc2[nH]c1=O (stereo not given) | 500 µg/mL (≈ 1410 µM) | 500 µg/mL (≈ 1410 µM) | 500 µg/mL (≈ 1410 µM) | 500 µg/mL (≈ 1410 µM) | 500 µg/mL (≈ 1410 µM) | 500 µg/mL (≈ 1410 µM) | 150 µg/mL (≈ 424 µM) | 125 µg/mL (≈ 354 µM) |
| CC1(C)CC(=O)C2=C(C1)NC(=S)NC2c1cc2cc(Cl)ccc2[nH]c1=O (stereo not given) | 1000 µg/mL (≈ 2580 µM) | 500 µg/mL (≈ 1290 µM) | 250 µg/mL (≈ 645 µM) | 50 µg/mL (≈ 129 µM) | 50 µg/mL (≈ 129 µM) | 50 µg/mL (≈ 129 µM) | 25 µg/mL (≈ 64.5 µM) | 125 µg/mL (≈ 322 µM) |
| COc1ccc2[nH]c(=O)c(C3NC(=S)NC4=C3C(=O)CCC4)cc2c1 (stereo not given) | > 1000 µg/mL | 500 µg/mL (≈ 1410 µM) | 200 µg/mL (≈ 563 µM) | 200 µg/mL (≈ 563 µM) | 200 µg/mL (≈ 563 µM) | 200 µg/mL (≈ 563 µM) | 125 µg/mL (≈ 352 µM) | 50 µg/mL (≈ 141 µM) |
| CC1(C)S[C@@H]2[C@H](NC(=O)[C@H](N)c3ccccc3)C(=O)N2[C@H]1C(=O)O [AMPICILLIN] | – | – | 250 µg/mL (≈ 715 µM) | 250 µg/mL (≈ 715 µM) | 100 µg/mL (≈ 286 µM) | 100 µg/mL (≈ 286 µM) | 100 µg/mL (≈ 286 µM) | 100 µg/mL (≈ 286 µM) |
| O=C(N[C@H](CO)[C@H](O)c1ccc([N+](=O)[O-])cc1)C(Cl)Cl [CHLORAMPHENICOL] | – | – | 50 µg/mL (≈ 155 µM) | 50 µg/mL (≈ 155 µM) | 50 µg/mL (≈ 155 µM) | 50 µg/mL (≈ 155 µM) | 50 µg/mL (≈ 155 µM) | 50 µg/mL (≈ 155 µM) |
| COc1ccc2[nH]c(=O)c(C3NC(=S)NC4=C3C(=O)CC(C)(C)C4)cc2c1 (stereo not given) | > 1000 µg/mL | 500 µg/mL (≈ 1300 µM) | 200 µg/mL (≈ 522 µM) | 200 µg/mL (≈ 522 µM) | 200 µg/mL (≈ 522 µM) | 200 µg/mL (≈ 522 µM) | 250 µg/mL (≈ 652 µM) | 500 µg/mL (≈ 1300 µM) |
| COC1=CC(=O)C[C@@H](C)[C@]12Oc1c(Cl)c(OC)cc(OC)c1C2=O [GRISEOFULVIN] | 100 µg/mL (≈ 283 µM) | 500 µg/mL (≈ 1420 µM) | – | – | – | – | – | – |
| CC1(C)CC(=O)C2=C(C1)NC(=O)NC2c1cc2ccccc2[nH]c1=O (stereo not given) | 500 µg/mL (≈ 1480 µM) | 500 µg/mL (≈ 1480 µM) | 200 µg/mL (≈ 593 µM) | 500 µg/mL (≈ 1480 µM) | 250 µg/mL (≈ 741 µM) | 250 µg/mL (≈ 741 µM) | 250 µg/mL (≈ 741 µM) | 100 µg/mL (≈ 296 µM) |
| O=C1NC2=C(C(=O)CCC2)C(c2cc3cc(Cl)ccc3[nH]c2=O)N1 (stereo not given) | 1000 µg/mL (≈ 2910 µM) | 1000 µg/mL (≈ 2910 µM) | 500 µg/mL (≈ 1450 µM) | 250 µg/mL (≈ 727 µM) | 500 µg/mL (≈ 1450 µM) | 100 µg/mL (≈ 291 µM) | 250 µg/mL (≈ 727 µM) | 200 µg/mL (≈ 582 µM) |
| GENTAMICIN | – | – | 5 µg/mL | 1 µg/mL | 0.5 µg/mL | 5 µg/mL | 5 µg/mL | 0.05 µg/mL |
| COc1ccc2[nH]c(=O)c(C3NC(=O)NC4=C3C(=O)CC(C)(C)C4)cc2c1 (stereo not given) | 1000 µg/mL (≈ 2720 µM) | 500 µg/mL (≈ 1360 µM) | 100 µg/mL (≈ 272 µM) | 250 µg/mL (≈ 680 µM) | 250 µg/mL (≈ 680 µM) | 50 µg/mL (≈ 136 µM) | 150 µg/mL (≈ 408 µM) | 100 µg/mL (≈ 272 µM) |
| CC1(C)CC(=O)C2=C(C1)NC(=O)NC2c1cc2ccccc2[nH]c1=S (stereo not given) | 100 µg/mL (≈ 283 µM) | 100 µg/mL (≈ 283 µM) | 500 µg/mL (≈ 1410 µM) | 500 µg/mL (≈ 1410 µM) | 250 µg/mL (≈ 707 µM) | 200 µg/mL (≈ 566 µM) | 500 µg/mL (≈ 1410 µM) | 500 µg/mL (≈ 1410 µM) |
| O=C1CCCC2=C1C(c1cc3ccccc3[nH]c1=O)NC(=S)N2c1ccccc1 (stereo not given) | 250 µg/mL (≈ 623 µM) | 500 µg/mL (≈ 1250 µM) | 100 µg/mL (≈ 249 µM) | 250 µg/mL (≈ 623 µM) | 150 µg/mL (≈ 374 µM) | 200 µg/mL (≈ 498 µM) | 100 µg/mL (≈ 249 µM) | 150 µg/mL (≈ 374 µM) |
| Cc1ccc2[nH]c(=O)c(C3NC(=S)N(c4ccccc4)C4=C3C(=O)CCC4)cc2c1 (stereo not given) | 500 µg/mL (≈ 1200 µM) | 1000 µg/mL (≈ 2410 µM) | 250 µg/mL (≈ 602 µM) | 500 µg/mL (≈ 1200 µM) | 500 µg/mL (≈ 1200 µM) | 500 µg/mL (≈ 1200 µM) | 250 µg/mL (≈ 602 µM) | 500 µg/mL (≈ 1200 µM) |
| O=C1NC2=C(C(=O)CCC2)C(c2cc3ccccc3[nH]c2=O)N1 (stereo not given) | > 1000 µg/mL | 500 µg/mL (≈ 1620 µM) | 100 µg/mL (≈ 323 µM) | 200 µg/mL (≈ 647 µM) | 100 µg/mL (≈ 323 µM) | 500 µg/mL (≈ 1620 µM) | 250 µg/mL (≈ 808 µM) | 250 µg/mL (≈ 808 µM) |
